Our source for the IC50 values is patent EP0166355A2, “Substituted aminophenyl compounds and acylaminophenyl compounds and pharmaceutical compositions containing them” (Merck & Co., Inc., priority 1984, dated 1986).

In the test the target is T1, CCK receptor (Rattus norvegicus, UniProt P30551).
T1 construct: The whole pancreas was dissected free of fat tissue and was homogenized; from tissue; host or cells: rat whole pancreas membrane homogenate
T1 sequence (P30551 1-444): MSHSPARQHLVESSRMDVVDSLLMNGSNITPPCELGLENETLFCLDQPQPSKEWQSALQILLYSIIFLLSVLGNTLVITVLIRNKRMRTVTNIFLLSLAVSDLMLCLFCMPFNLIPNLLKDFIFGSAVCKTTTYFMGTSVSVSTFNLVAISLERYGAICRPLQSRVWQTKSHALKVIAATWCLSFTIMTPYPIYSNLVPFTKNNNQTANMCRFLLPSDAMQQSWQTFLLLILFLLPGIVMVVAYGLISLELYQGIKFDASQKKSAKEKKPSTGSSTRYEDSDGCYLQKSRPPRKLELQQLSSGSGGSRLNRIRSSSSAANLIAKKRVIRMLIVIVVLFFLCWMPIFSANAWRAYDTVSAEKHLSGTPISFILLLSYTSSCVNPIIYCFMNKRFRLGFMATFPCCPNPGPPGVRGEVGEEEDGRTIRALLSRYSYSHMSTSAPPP
The test is described as follows: CCK Receptor Binding (Pancreas), 125I-CCK-33. More on the design: species or system rats. How it is done:
1. CCK Receptor Binding (Pancreas)
CCK-33 was radiolabeled with ^125 I-Bolton Hunter reagent (2000 Ci/mmole) as described by Sankara et al. (J. Biol. Chem. 254: 9349-9351, 1979). Receptor binding was performed according to Innis and Snyder (Proc. Natl. Acad. Sci. 77: 6917-6921, 1980) with the minor modification of adding the additional protease inhibitors, phenylmethane sulfonyl fluoride and o-phenanthroline. The latter two compounds have no effect on the ^125I-CCK receptor binding assay.
Male Sprague-Dawley rats (200-350g) were sacrificed by decapitation. The whole pancreas was dissected free of fat tissue and was homogenized in 20 volumes of ice-cold 50 mM, Tris HC1 (pH 7.7 at 25°C) with a Brinkmann Polytron PT 10. The homogenates were centrifuged at 48,000 g for 10 min. Pellets were resuspended in Tris Buffer, centrifuged as above and resuspended in 200 volumes of binding assay buffer (50 mM Tris HC1, pH 7.7 at 25°C, 5 mM dithiothrietol, 0.1 mM bacitracin, 1.2 mM phenylmethane sulfonyl fluoride and 0.5 mM o-phenanthroline). For the binding assay, 25 µl of buffer (for total binding) or unlabeled CCK-8 sulfate to give a final concentration of lµM (for nonspecific binding) or the compounds of Formula I (for determination inhibition of 125I-CCK binding) and 25 ul of ^125 I-CCK-33 (30,000-40,000 cpm) were added to 450 µl of the membrane suspensions in microfuge tubes. All assays were run in duplicate or triplicate. The reaction mixtures were incubated at 37°C for 30 minutes and centrifuged in a Beckman Microfuge (4 minutes) immediately after adding 1 ml of ice-cold incubation buffer. The supernatant was aspirated and discarded, pellets were counted with a Beckman gamma 5000. For Scatchard analysis (Ann. N.Y. Acad. Sci. 51: 660, 1949), ^125I-CCK-33 was progressively diluted with increasing concentrations of CCK-33.

[1] abbreviates: inhibition of 125I-CCK-33 binding, rat pancreas membranes, 37°C, 30 minutes; read-out: IC50(µM) ^125I-CCK Pancreas.

Each structure is given as a SMILES string. Like-named read-outs stand apart in the source and are kept apart here. Peptide text beside a SMILES is read from it. * marks the point of attachment. X1 = O=C(c1ccccc1)c1ccccc1N*; Cbz = O=C(OCc1ccccc1)*

Consider `O=C(NC(Cc1cccs1)C(=O)Nc1ccccc1C(=O)c1ccccc1F)c1ccsc1` (racemic) [Example 12, 2-N-(N^a-3-Thienoyl-DL-B-(2-thienyl)alanyl)amino 2'-fluorobenzophenone], for which the IC50 under setting [1] worked out at 1.3 µM. Regarding `O=C(N[C@@H](CC1CNc2ccccc21)C(=O)Nc1ccc(Cl)cc1C(=O)c1ccccc1)c1ccsc1` (single isomer, unassigned) [Example 22B], the IC50 under setting [1] was found to be 2.2 µM. `CC(C)(C)OC(=O)N[C@@H](Cc1c[nH]c2ccccc12)C(=O)Nc1ccc(Cl)cc1C(=O)c1ccccc1` [Example 2, 2-N-(N-a-Boc-L-tryptophanyl)amino-5-chlorobenzo phenone]: the IC50 under setting [1] amounted to 0.74 µM. `CC(C)(C)OC(=O)N[C@@H](Cc1c[nH]c2ccccc12)C(=O)Nc1ccccc1C(=O)c1ccccc1F` [Example 3, 2-N-(N^a-Boc-L-tryptophanyl)amino-2'-fluorobenzo phenone]: under setting [1], the IC50 stood at 3.7 µM. For `CC(C)(C)OC(=O)N[C@@H](Cc1c[nH]c2ccccc12)C(=O)Nc1ccccc1C(=O)c1ccccc1` [Example 5, 2-N-(N^a-Boc-L-tryptophanyl)aminobenzophenone], under setting [1], the IC50 came out at 4.8 µM. Still for that read-out and setting: to `O=C(CCc1c[nH]c2ccccc12)Nc1ccc(Cl)cc1C(=O)c1ccccc1` [Example 13, 2-N-[3-(3'indolyl)propanoyl]amino-5-chlorobenzophenone] belongs 10 µM; to `O=C(N[C@@H](Cc1c[nH]c2ccccc12)C(=O)Nc1ccccc1C(=O)c1ccccc1)c1ccc(Cl)cc1` [Example 15, 2-N-(N^α-p-Chlorobenzoyl-L-tryptophanyl)aminobenzophenone], 0.9 µM; to `CC(=O)N[C@@H](Cc1c[nH]c2ccccc12)C(=O)Nc1ccccc1C(=O)c1ccccc1` [Example 16, 2-N-(N^a-acetyl-L-tryptophanyl)aminobenzophenone], 1 µM. With `O=C(N[C@@H](Cc1c[nH]c2ccccc12)C(=O)Nc1ccccc1C(=O)c1ccccc1)c1ccsc1` [Example 17, 2-N-(N^a-3-thienoyl-L-tryptophanyl)aminobenzophenone], the IC50 under setting [1] came to 0.19 µM. `CC(C)(C)OC(=O)NCC(=O)N[C@@H](Cc1c[nH]c2ccccc12)C(=O)Nc1ccccc1C(=O)c1ccccc1` [Example 18, 2-N-(N^a-Boc-glycyl-L-tryptophanyl)aminobenzophenone]: under setting [1], the half-maximal inhibitory concentration (IC50) turned out to be 8 µM. The same measure, in the same setting: to `CSCC[C@H](NC(=O)OC(C)(C)C)C(=O)NCC(=O)N[C@@H](Cc1c[nH]c2ccccc12)C(=O)Nc1ccccc1C(=O)c1ccccc1` [Example 19, 2-N-(N^a-Boc-L-methionyl-glycyl-L-tryptophanyl)aminobenzophenone] belongs 2.4 µM. Take `CSCC[C@H](NC(=O)[C@H](Cc1ccc(O)cc1)NC(=O)OCc1ccccc1)C(=O)NCC(=O)N[C@@H](Cc1c[nH]c2ccccc12)C(=O)Nc1ccccc1C(=O)c1ccccc1` [Example 20, 2-N-(N^a-Benzyloxycarbonyl-L-tryosyl-L-methionyl-glycyl-L-tryptophanyl)aminobenzophenone] (Cbz-YMGW-X1): the IC50 (read-out: IC50(µM) ^125I-CCK Pancreas; inhibition of 125I-CCK-33 binding, rat pancreas membranes, 37°C, 30 minutes) amounted to 2 µM. With `O=C(N[C@@H](Cc1c[nH]c2ccccc12)C(=O)Nc1ccc(Cl)cc1C(=O)c1ccccc1)c1ccsc1` [Example 21, 2-N-(N^a-3-thienoyl-L-tryptophanyl)amino-5-chlorobenzophenone], under setting [1], the IC50 turned out to be 0.4 µM.

Usually IC50 stands for the concentration needed to halve the response being measured.
